Read-outs that look alike come from different tables or passages of the source. Where no end group is shown, it is not given here.
Key:
Ca922 cells [1] = experiment: WST-8 cell viability assay, Ca922; type: cell-based, human
Procedure: (§1) Human oral squamous cell carcinoma (OSCC) cell lines, Ca922, OSC20, OECM-1, OC3, CGHNC9, HSC3, plus A549, MDA-MB-231, MCF7, Huh7, HeLa-Kyoto, Detroit 562, H520, H2170, and 293T cells were used in this study. Ca922, CGHNC9, MDA-MB-231, MCF7, Huh7, HeLa-Kyoto, Detroit 562, and 293T cells were all cultured in high-glucose Dulbecco's Modified Eagle Medium (DMEM). OSC20 and HSC3 cells were cultured in Dulbecco's Modified of Eagle's Medium/Ham's F-12 50/50 Mix (1:1). OECM-1, A549, H520, and H2170 cells were grown in RPMI-1640 medium. All culture media were supplemented with 10% fetal bovine serum (FBS) and 1% penicillin-streptomycin. OC3 cells were cultured in 1:1 DMEM/KSFM (keratinocyte serum-free medium) with supplied supplement of Bovine pituitary extract (BPE) and epidermal growth factor (EGF) followed by instruction. All the cells in this study were maintained at 37° C. in humidified atmosphere containing 5% CO2.
(§2) WST-8 [2-(2-methoxy-4-nitrophenyl)-3-(4-nitrophenyl)-5-(2,4-disulfophenyl)-2H-tetrazolium, monosodium salt] cell viability assay
(§3) Cells were seeded into 96 well plate and incubated at 37° C. overnight. Endpoint measures of TMR-GBP or drugs were performed by water soluble tetrazolium salt (WST-8)-based colorimetric assay in triplicate which measures the metabolic conversion of WST-8 into formazan by mitochondrial dehydrogenases present in viable cells. The amount of formazan produced is proportional to the number of live cells and is expressed as cellular viability. When time was up, media were removed and supplemented with WST-8 cell viability reagent-contained cell culture medium (1:10) and incubated at 37° C. for 2 hours. Besides, three wells with WST-8-dissolved medium only (without cells) were reserved as a background control. Cell viability was measured at the absorbance of 450/655 nm wavelength by ELISA reader.

phospho-γH2Ax = experiment: Immunofluorescence staining of phospho-γH2Ax (DNA damage); type: cell-based, human; conditions: Ca922, H2O2 positive control, FIG. 10A
Procedure: Representative images showing DAPI-labelled nucleus (shown in blue) co-stained with phospho-γH2Ax (green). Ca922 cells were treated with 25 μM TMR-GBP for 12 or 24 hours followed by immunofluorescence staining. Foci in the nucleus indicated damaged DNA. Scale bar indicates 10 μm.
At least 20 cells were counted in each category. Bars indicate standard deviations from three independent experiments.
Immunofluorescence Staining
Cells grown on coverslips were washed with 1×PBS and fixed by PTEMF buffer (20 mM PIPES pH 6.8, 0.2% Triton X-100, 10 mM EGTA, 1 mM MgCl2, and 4% formaldehyde) or 4% paraformaldehyde for 10 minutes at room temperature. Then, fixation buffer was replaced with 1×PBST and the cells were washed with 1×PBST for another 10 minutes at room temperature. Coverslips were washed with 1×PBST twice gently and incubated with primary antibodies at room temperature for 1 hour. Next, washed with PBST for three times (2, 2, 5 minutes). Afterwards, coverslips were cultured in Alex Fluor-conjugated secondary antibodies and DAPI at room temperature for 30 minutes, washed three times (2, 2, 5 minutes), rinsed with ddH2O and mounted with mounting medium. Antibodies concentration used in this analysis is 1:1000 dilution. Images were acquired with specific fluorescence wavelength by Leica DMI6000 inverted microscope equipped with HCX PL FL 100λ/NA1.40 objective and EMCCD camera. All images were analyzed by MetaMorph software.

Ca922 cells [2] = experiment: Annexin V staining with flow cytometry; type: cell-based, human; conditions: Ca922, 1% H2O2 positive control, FIG. 6A
Procedure: […] Diluted 10× Binding Buffer to 1× using distilled water. Washed cells once in PBS, then once in 1× Binding Buffer. Resuspended cells in 1× Binding Buffer at 1-5×10^6/mL. Next, added 5 μL of fluorochrome-conjugated Annexin V to 100 μL of the cell suspension. Sample was incubated 10-15 minutes at room temperature. Afterwards, washed cells in 1× Binding Buffer and resuspend in 200 μL of 1× Binding Buffer. Analyzed by flow cytometry within 4 hours, storing at 2-8° C. in the dark.

Detroit 562 = experiment: WST-8 cell viability assay, Detroit 562; type: cell-based
Procedure: as §1, §2, §3

H520 = experiment: WST-8 cell viability assay, H520; type: cell-based
Procedure: as §1, §2, §3

H2170 = experiment: WST-8 cell viability assay, H2170; type: cell-based
Procedure: as §1, §2, §3

Ca922 cells [3] = experiment: Time-lapse live cell imaging, Ca922; type: cell-based; conditions: Ca922, 12.5 μM, exposed to 532 nm, 488 nm, 405 nm and brightfield, after 20 hours, FIG. 2
Procedure: Ca922 cells were grown on 35 mm culture dishes overnight then treated with 1% DMSO, 12.5 μM TMR, GBP, TMR-GBP respectively and monitored by time-lapse live cell microscope. Cells were exposed to indicate wavelength once every 4 hours for 100 ms and continuously for 20 hours. At least 300 cells in five different fields were counted for each experiment using microcopy that captured images under 10× magnification. Mortality rate was evaluated by counting the percentage of dead cells in the whole population. Standard deviations of three independent experiments were indicated as bars.
Time-Lapse Live Cell Imaging
In order to monitor cell morphology and the stability of TMR-GBP, cells were incubated in 35 mm dish or 4 well dish at 37° C. overnight. Replaced the culture medium with CO2-independent medium with supplement of 10% fetal bovine serum (FBS) and 1% penicillin-streptomycin, cells were treated with reagent (TMR, GBP, TMR-GBP) for the time according to the experiment and subjected to time-lapse live cell imaging. Cells were maintained on the microscope stage incubator at 37° C. Multiple-positional time-lapse imaging was performed using an automated Leica DMI6000 inverted microscope equipped with an HCX PL FL 20λ/NA0.4 objective and Andor Luca R EMCCD camera. Images of cells were taken at different interval time and analyzed by MetaMorph software.

Molecule: O=C(O)CN(CCOCCOCCN(CC(=O)O)CC(=O)O)CC(=O)O [EGTA, ethylene glycol tetraacetic acid, reference compound]
- effect on cell viability (Ca922 cells [1]; Ca922, 1 mM EGTA, 50 hours, FIG. 8A): no significant effect on cell viability

Molecule: OO [H2O2, reference compound]
- phospho-γH2Ax foci in the nucleus (DNA damage) (phospho-γH2Ax): many foci were observed accumulating in the nucleus
- apoptosis by Annexin-V-FITC labeling (Ca922 cells [2]): induces apoptosis in Ca922

Molecule: CN(C)c1ccc2c(-c3ccccc3C(=O)[O-])c3ccc(N(C)C)cc3[o+]c2c1 [TMR, Tetramethylrhodamine, reference compound]
- cytotoxicity (cell viability) (Detroit 562; Detroit 562 (pharynx cancer), different concentrations, 48 hours, FIG. 5): neither TMR-GBPR3QW4R nor TMR alone induce cytotoxicity
- cytotoxicity (cell viability) (H520; H520 (lung cancer), different concentrations, 48 hours, FIG. 5): neither TMR-GBPR3QW4R nor TMR alone induce cytotoxicity
- cytotoxicity (cell viability) (Ca922 cells [1]; Ca922 (oral cancer), different concentrations, 48 hours, FIG. 5): neither TMR-GBPR3QW4R nor TMR alone induce cytotoxicity
- cytotoxicity (cell viability) (H2170; H2170 (lung cancer), different concentrations, 48 hours, FIG. 5): neither TMR-GBPR3QW4R nor TMR alone induce cytotoxicity
- cytotoxicity under light stress (mortality) (Ca922 cells [3]): more sensitive to 532 nm light stress and displayed cytotoxic effects

Molecule: TMR-GBPR3QW4R: TMR conjugate of peptide GBPR3QW4R, NYQRRCKNQN (SEQ ID NO. 4) (not fully specified (N-terminus); also: TMR conjugate, site not given here; listed as Homo sapiens)
- cytotoxicity (cell viability) (Detroit 562): neither TMR-GBPR3QW4R nor TMR alone induce cytotoxicity
- cytotoxicity (cell viability) (H520): neither TMR-GBPR3QW4R nor TMR alone induce cytotoxicity
- cytotoxicity (cell viability) (Ca922 cells [1]): neither TMR-GBPR3QW4R nor TMR alone induce cytotoxicity
- cytotoxicity (cell viability) (H2170): neither TMR-GBPR3QW4R nor TMR alone induce cytotoxicity

Molecule: TMR-GBPW4R: TMR conjugate of peptide GBPW4R, NYRRRCKNQN (SEQ ID NO. 3) (not fully specified (N-terminus); also: TMR conjugate, site not given here; listed as Homo sapiens)
- cytotoxicity (cell viability) (Detroit 562): could induce cytotoxicity
- cytotoxicity (cell viability) (H520): could induce cytotoxicity
- cytotoxicity (cell viability) (H2170): could induce cytotoxicity

From US11129867B2, “Method of treating cancer cells” (priority 2017, dated 2021)
